How the values were obtained:
Test in all cases: stopped-flow UV-vis
Format in all cases: biochemical
Conditions in all cases: oxidant reacting with Cu(I) enzyme, no polysaccharide substrate; 100 uM enzyme, 500 uM oxidant
[1] = molecular target: T1, LsAA9 (Panus similis, UniProt A0A0S2GKZ1)
T1 construct: gene LPMO9A; mature secreted AA9 LPMO, Cu(I) form; expressed in Escherichia coli (fungal host also compared); details in supplement
T1 sequence (A0A0S2GKZ1 20-254): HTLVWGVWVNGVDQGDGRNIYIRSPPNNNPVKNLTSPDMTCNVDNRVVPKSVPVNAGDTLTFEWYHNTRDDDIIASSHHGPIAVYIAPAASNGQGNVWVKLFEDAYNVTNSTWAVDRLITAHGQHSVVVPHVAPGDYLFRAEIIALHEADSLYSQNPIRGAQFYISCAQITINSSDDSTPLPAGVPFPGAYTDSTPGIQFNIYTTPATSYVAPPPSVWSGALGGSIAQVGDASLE

[2] = molecular target: T2, TaAA9 (Thermoascus aurantiacus, UniProt G3XAP7)
T2 construct: gene LPMO9A; mature secreted AA9 LPMO, Cu(I) form; host and construct only in supplement
T2 sequence (G3XAP7 whole entry): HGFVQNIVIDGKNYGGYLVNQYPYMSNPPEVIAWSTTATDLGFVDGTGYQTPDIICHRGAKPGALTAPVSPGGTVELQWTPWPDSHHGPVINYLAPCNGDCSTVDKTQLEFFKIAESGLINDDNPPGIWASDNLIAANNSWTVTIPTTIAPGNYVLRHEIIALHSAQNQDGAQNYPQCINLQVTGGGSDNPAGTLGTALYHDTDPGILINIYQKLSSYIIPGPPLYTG

[3] = molecular target: T3, CvAA9 (Achaetomiella virescens, UniProt A0A223GEC9)
T3 construct: gene AA9A; mature secreted AA9 LPMO, Cu(I) form; host and construct only in supplement
T3 sequence (A0A223GEC9 23-274): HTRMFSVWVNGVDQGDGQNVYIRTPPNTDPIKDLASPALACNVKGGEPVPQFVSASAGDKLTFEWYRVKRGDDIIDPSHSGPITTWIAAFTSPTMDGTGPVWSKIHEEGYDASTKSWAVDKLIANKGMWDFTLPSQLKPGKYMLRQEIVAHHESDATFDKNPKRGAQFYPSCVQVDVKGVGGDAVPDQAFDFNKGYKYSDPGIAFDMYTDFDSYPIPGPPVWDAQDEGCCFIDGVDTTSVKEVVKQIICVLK

O=C(OO)c1cccc(Cl)c1 [m-CPBA, meta-chloro-perbenzoic acid]
stopped-flow UV-vis [1]: transient intermediates generated upon oxidation of CuI–TaAA9, CvAA9, and LsAA9 with mCPBA | stopped-flow UV-vis [2]: transient intermediates generated upon oxidation of CuI–TaAA9, CvAA9, and LsAA9 with mCPBA | stopped-flow UV-vis [3]: transient intermediates generated upon oxidation of CuI–TaAA9, CvAA9, and LsAA9 with mCPBA
